Active and inactive are the calls of the source.
What was measured:
Escherichia coli = assay: microbe, parasite or virus in culture
[1] = biological target: T1, Tyrosine-protein phosphatase non-receptor type 22 (Homo sapiens, UniProt Q9Y2R2); assay type: functional
T1 sequence (Q9Y2R2 whole entry): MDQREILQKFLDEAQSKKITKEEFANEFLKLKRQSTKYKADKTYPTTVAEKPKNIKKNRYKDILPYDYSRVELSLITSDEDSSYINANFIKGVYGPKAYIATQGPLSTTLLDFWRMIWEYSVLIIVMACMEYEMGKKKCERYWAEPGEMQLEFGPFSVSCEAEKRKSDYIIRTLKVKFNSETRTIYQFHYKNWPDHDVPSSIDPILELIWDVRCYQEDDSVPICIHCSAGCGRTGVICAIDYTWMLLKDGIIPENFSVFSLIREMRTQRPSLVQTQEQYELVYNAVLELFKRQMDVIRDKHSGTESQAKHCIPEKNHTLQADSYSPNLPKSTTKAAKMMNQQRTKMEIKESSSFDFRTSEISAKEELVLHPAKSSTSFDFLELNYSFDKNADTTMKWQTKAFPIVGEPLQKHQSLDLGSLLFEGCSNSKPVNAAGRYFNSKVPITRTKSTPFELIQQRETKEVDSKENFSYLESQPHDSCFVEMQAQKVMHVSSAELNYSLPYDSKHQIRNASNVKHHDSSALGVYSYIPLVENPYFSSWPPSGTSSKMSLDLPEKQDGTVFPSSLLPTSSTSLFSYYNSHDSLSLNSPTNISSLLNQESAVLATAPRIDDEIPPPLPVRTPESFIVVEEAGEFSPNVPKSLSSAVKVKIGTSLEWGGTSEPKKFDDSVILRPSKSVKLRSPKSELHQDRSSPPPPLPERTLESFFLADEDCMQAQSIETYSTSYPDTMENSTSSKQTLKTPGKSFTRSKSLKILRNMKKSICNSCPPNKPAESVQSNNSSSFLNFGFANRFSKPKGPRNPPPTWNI

[2] = biological target: T2, Tyrosine-protein phosphatase non-receptor type 7 (Homo sapiens, UniProt P35236); assay type: functional
T2 sequence (P35236 whole entry): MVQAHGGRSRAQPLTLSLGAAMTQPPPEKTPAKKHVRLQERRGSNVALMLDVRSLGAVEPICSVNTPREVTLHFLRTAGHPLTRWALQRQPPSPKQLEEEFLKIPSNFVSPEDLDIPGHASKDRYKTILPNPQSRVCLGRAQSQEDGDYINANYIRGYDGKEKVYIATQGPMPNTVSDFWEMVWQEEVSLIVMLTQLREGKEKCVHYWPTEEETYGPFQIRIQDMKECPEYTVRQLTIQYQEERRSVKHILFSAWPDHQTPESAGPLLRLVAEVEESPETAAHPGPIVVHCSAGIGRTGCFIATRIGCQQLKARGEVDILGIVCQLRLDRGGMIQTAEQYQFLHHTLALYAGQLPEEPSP

[3] = P. falciparum late gametocyte killing, dose response, luminescence (AID 1117278); assay type: functional, cell-based;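 note: gametocytes exposed to compound for 24 hours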
[4] = biological target: T1, Tyrosine-protein phosphatase non-receptor type 22; assay type: functional; remark: listed apart in the source
[5] = Jurkat T cell cytotoxicity, dose response, cytotoxicity control for P. falciparum gametocyte viability project, luminescence (AID 1117277); assay type: functional, cell-based;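 note: potency reflects loss of cellular ATP meaning fewer viable cells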
[6] = Counterscreen for AddAB inhibitors: absorbance-based bacterial cell-based high throughput dose response assay for inhibitors of bacterial viability. [Related pubchem assays (depositor defined):AID435030, AID449728, AID449731, AID488942, AID488955, AID488956]; assay type: functional
Exodeoxyribonuclease V = Exodeoxyribonuclease V (Escherichia coli (strain K12), UniProt P04993+P07648+P08394); assay: E. coli RecBCD inhibitors, dose response, counter-screen for AddAB inhibitor project, absorbance, V66 E. coli, mutant T4 phage (AID 492957); assay type: functional, cell-based, Escherichia coli str. K-12 substr. MG1655
[7] = growth suppression of PTEN-null colon cells, dose response, cell-based, HCT116 PTEN knockout (AID 1047); assay type: functional;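 note: HCT116 colon tumor cells with PTEN knocked out; cells exposed to compound for 60 hours before readout; potency for loss of cell viability measured by luminescence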
[8] = growth suppression of beta-catenin-knockout colon cells, dose response, cell-based, HCT116, human colon tumor (AID 1045); assay type: functional;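 note: HCT116 colon tumor cells with beta catenin knocked out; cells exposed to compound for 60 hours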
Vero [9] = assay: cells; assay type: functional, cell-based; details: Chlorocebus sabaeus
[10] = human group III sPLA2 inhibitors, dose response, biochemical, QFRET, IC50 (AID 743457);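 note: green fluorescence rise as the enzyme cleaves BODIPY PC-A2 in liposomes; potency for inhibition of the enzyme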
Vero [11] = assay: cells; assay type: functional; details: Chlorocebus sabaeus
[12] = biological target: T3, Ubiquitin-conjugating enzyme E2 N (Homo sapiens, UniProt P61088); assay type: functional
T3 sequence (P61088 whole entry): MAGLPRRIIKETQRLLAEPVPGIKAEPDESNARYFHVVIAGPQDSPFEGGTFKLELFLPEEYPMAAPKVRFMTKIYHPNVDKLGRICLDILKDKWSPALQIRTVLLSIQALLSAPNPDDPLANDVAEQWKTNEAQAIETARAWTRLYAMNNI

Bcl-2-related protein A1 = Bcl-2-related protein A1 (Mus musculus, UniProt Q07440); assay type: functional;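 note: confirmatory dose–response counterscreen on Bfl-1, used to check hits from a UBC13 polyubiquitin inhibitor campaign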
[13] = biological target: T3, Ubiquitin-conjugating enzyme E2 N; assay type: functional; remark: listed apart in the source
[14] = Luminescence Cell-Based Dose Retest to Confirm Inhibitors of Cancer Stem Cells. [Related pubchem assays (depositor defined):AID2717, AID2721]; assay type: functional, Homo sapiens; details: Homo sapiens
[15] = cytotoxicity in HMLE control line with eGFP shRNA, dose response, counter-screen for HMLE_sh_ECad selective toxicity project, cell-based, HMLE_sh_eGFP, luminescence (AID 463074); assay type: functional, Homo sapiens;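 note: HMLE human mammary epithelial cells expressing control shRNA against eGFP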
INS1 = assay: beta cell apoptosis inhibitors, cytokine rescue, dose response, luminescence, retest (AID 449756); assay type: functional, cell-based; details: Rattus norvegicus;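 note: cell death triggered by IL-1 beta plus TNF-alpha plus IFN-gamma mixture; protective hits raise ATP signal compared with cytokine alone wells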
[16] = biological target: Fructose-bisphosphate aldolase (Mycobacterium tuberculosis, UniProt P9WQA3); assay: Fluorescence-based biochemical high throughput dose response assay for inhibitors of the fructose-bisphosphate aldolase (FBA) of M. tuberculosis.; assay type: functional
Fructose-bisphosphate aldolase, sequence (P9WQA3 whole entry): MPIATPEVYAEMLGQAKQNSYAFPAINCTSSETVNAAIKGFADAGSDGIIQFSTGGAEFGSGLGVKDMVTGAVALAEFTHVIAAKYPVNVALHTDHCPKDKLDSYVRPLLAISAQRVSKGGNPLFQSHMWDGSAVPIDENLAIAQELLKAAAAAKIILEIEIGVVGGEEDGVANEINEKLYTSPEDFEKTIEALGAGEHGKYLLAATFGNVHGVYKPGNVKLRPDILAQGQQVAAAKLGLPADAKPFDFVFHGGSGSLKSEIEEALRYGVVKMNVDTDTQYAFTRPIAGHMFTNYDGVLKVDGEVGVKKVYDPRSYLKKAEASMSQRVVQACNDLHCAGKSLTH

Exodeoxyribonuclease V, sequence (P04993 whole entry): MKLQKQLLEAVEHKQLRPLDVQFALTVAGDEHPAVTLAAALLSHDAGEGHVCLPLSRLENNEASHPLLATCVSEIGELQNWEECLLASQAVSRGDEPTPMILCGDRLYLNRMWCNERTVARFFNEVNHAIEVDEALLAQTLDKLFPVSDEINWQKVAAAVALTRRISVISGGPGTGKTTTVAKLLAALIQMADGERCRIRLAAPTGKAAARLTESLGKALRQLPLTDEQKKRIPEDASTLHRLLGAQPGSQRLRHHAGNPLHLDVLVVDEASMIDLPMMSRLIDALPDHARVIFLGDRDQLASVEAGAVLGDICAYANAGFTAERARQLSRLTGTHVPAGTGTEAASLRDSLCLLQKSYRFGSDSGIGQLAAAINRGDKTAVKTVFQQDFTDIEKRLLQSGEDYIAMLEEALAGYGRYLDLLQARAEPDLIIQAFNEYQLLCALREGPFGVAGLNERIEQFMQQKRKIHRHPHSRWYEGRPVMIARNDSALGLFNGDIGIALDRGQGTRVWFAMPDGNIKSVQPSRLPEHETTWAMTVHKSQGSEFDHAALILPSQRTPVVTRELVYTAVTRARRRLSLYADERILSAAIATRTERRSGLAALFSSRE
Exodeoxyribonuclease V, sequence (P07648 whole entry): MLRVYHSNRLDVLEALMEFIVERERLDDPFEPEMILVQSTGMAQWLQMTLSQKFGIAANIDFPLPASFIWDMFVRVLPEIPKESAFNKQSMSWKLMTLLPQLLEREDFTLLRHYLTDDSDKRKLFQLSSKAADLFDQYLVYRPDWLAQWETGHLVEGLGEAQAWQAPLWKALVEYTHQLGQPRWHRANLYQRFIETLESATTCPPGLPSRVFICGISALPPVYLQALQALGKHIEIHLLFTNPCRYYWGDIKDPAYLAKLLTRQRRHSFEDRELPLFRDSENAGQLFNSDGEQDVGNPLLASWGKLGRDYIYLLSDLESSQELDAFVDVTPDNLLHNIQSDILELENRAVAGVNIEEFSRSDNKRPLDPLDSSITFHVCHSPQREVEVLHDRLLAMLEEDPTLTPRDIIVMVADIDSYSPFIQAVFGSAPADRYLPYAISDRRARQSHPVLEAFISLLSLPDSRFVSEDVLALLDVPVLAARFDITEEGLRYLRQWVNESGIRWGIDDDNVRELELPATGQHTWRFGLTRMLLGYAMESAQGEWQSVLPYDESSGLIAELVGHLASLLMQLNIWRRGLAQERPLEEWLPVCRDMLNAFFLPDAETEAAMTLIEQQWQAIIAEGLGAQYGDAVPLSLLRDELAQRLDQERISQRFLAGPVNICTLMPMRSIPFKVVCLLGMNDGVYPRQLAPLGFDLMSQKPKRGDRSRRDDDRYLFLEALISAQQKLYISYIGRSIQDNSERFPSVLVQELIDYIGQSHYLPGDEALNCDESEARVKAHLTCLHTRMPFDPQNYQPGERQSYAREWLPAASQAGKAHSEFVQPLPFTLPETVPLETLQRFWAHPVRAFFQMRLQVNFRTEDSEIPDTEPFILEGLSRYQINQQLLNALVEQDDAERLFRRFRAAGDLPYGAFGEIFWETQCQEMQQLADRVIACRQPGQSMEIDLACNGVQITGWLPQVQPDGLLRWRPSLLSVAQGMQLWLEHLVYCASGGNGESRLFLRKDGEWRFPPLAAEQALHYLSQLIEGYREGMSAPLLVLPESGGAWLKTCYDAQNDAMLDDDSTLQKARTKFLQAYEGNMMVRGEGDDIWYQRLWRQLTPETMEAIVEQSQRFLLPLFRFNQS
Exodeoxyribonuclease V, sequence (P08394 whole entry): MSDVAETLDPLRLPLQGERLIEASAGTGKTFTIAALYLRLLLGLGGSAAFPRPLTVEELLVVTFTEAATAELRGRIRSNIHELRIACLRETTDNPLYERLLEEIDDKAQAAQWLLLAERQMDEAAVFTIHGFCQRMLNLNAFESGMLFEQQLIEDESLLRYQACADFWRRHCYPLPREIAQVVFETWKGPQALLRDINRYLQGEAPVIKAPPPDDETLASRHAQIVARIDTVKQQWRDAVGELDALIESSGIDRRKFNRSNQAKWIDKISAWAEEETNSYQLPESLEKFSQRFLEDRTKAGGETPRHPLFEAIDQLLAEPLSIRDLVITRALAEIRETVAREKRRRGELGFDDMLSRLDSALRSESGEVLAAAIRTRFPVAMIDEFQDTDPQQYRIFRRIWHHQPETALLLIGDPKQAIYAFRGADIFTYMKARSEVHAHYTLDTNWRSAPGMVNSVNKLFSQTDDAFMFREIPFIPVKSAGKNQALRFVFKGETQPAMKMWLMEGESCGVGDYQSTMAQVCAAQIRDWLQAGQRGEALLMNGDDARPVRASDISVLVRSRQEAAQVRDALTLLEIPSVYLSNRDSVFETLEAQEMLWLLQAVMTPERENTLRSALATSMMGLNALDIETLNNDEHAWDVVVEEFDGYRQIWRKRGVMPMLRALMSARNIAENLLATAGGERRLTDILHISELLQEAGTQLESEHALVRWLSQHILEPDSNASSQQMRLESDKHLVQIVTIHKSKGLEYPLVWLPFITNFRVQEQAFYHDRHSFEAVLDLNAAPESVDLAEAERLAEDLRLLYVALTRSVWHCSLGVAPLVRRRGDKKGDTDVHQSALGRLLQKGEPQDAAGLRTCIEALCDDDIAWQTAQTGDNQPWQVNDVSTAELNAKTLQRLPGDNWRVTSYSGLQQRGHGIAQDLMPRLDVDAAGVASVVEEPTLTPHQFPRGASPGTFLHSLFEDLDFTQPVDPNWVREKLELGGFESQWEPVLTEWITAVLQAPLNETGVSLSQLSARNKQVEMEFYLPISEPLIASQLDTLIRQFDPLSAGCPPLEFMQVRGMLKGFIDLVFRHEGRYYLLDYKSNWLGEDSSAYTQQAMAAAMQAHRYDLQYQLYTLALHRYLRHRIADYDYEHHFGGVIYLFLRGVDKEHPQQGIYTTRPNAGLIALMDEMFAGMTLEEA
Bcl-2-related protein A1, sequence (Q07440 whole entry): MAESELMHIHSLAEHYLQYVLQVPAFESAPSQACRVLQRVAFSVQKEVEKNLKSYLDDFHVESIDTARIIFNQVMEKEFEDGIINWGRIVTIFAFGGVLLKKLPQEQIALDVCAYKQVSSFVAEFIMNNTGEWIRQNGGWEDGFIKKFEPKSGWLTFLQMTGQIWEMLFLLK

Q: Which AC50 (Escherichia coli) does the source give for `O=C(O)CN1C(=O)CC(Cc2ccc(Cl)cc2)C1=O` (stereo unspecified) here?
A: 106 µM (active)

Q: With `COc1ccc(C(C#N)(CCC#N)CCC#N)cc1OC` as the compound, how does the IC50 [1] read?
A: > 79.4 µM (inactive)

Q: What about the IC50 [2] of the same compound?
A: > 79.4 µM (inactive)

Q: What about the IC50 [3] of the same compound?
A: > 109 µM (inactive)

Q: What about the IC50 [4] of the same compound?
A: > 79.4 µM (inactive)

Q: What about the IC50 [5] of the same compound?
A: > 83.3 µM (inactive)

Q: Which results are given for `O=C(OCC(=O)c1cccs1)c1ccc([N+](=O)[O-])o1`?
A: IC50 [6]: 92.6 µM (inactive); IC50 (Exodeoxyribonuclease V): > 119 µM (inactive)

Q: Which EC50 [7] does the source give for `CCCCCOc1ccc(CSC(=N)N)cc1[N+](=O)[O-]` here?
A: 25 µM (active)

Q: What about the EC50 [8] of the same compound?
A: 27 µM (active)

Q: What about the IC50 (Vero [9]) of the same compound?
A: 21.2 µM (active)

Q: What about the IC50 [6] of the same compound?
A: 83.6 µM (inactive)

Q: What about the IC50 (Exodeoxyribonuclease V) of the same compound?
A: > 39.5 µM (inactive)

Q: And the IC50 [10]?
A: > 122 µM (inactive)

Q: And the CC50 (Vero [11])?
A: > 25 µM (active)

Q: With `Cc1cc(C(=O)NNC(=S)NC(=O)/C=C/c2ccccc2Cl)[nH]n1` as the compound, how does the IC50 [12] read?
A: 5.24 µM (active)

Q: And the IC50 (Bcl-2-related protein A1)?
A: > 20 µM (inactive)

Q: And the IC50 [13]?
A: 6.96 µM (active)

Q: And the IC50 [10]?
A: > 122 µM (inactive)

Q: Which results are given for `Cc1ccc2nc(-c3ccc(-c4cccc(Cl)c4)cc3)c(NCc3ccccc3)n2c1`?
A: AC50 [14]: 4.96 µM (active); AC50 [15]: 24 µM (active); AC50 (INS1): 2.29 µM (active); IC50 [16]: 0.848 µM (active)

Q: Which IC50 [1] does the source give for `CCOC1(C)OCC(=O)[C@]2(CCC3C4CCC5=CC(=O)C=CC5(C)C4C(=O)CC32C)O1` (stereo partly specified) here?
A: > 79.4 µM (inactive)

Q: And the IC50 [2]?
A: > 79.4 µM (inactive)

Q: What about the IC50 [4] of the same compound?
A: > 79.4 µM (inactive)
